Source: patent US6096863A, “Self-assembling amphiphiles for construction of peptide secondary structures” (Regents of the University of Minnesota, priority 1996, dated 2000)
Starred links: 1 amine or outer side, 2 acyl side, 3 side chain; linkers in the order of their positions; H or OH if unused. Non-standard residues stand in square brackets, D forms with d. Residues, ends and D or L forms follow the SMILES beside them. *: point of attachment. X2 = CCCCCCCCCCCCCCCCOC(=O)CC[C@H](N*)C(=O)OCCCCCCCCCCCCCCCC; X1 = CCCCCCCCCCCCCCOC(=O)CC[C@H](N*)C(=O)OCCCCCCCCCCCCCC; X3 = CCCCCCCCCCCCOC(=O)CC[C@H](N*)C(=O)OCCCCCCCCCCCC; Hyp = O=C(O)[C@@H]1C[C@@H](O)CN1; Suc = O=C(CCC(=O)[*:2])[*:1]

What was measured:
[1] = Circular dichroism spectroscopy; assay type: physicochemical; settings: 25° C., 0.5 mM in H2O, λ=225 nm
Protocol: Spectra were recorded on a JASCO J-710 spectropolarimeter using a thermostated 0.1 mm quartz cell. Thermal transition curves were obtained by recording the molar ellipticity ([θ]) in the range of 10-80° C. at λ=225 nm. The peptide and peptide-amphiphile concentrations were 0.5 mM in H2 O at 25° C.

[2] = Surface pressure-area isotherms of monolayers at the air-water interface; assay type: physicochemical; settings: for limiting surface area (monolayer reaches maximum surface pressure and collapses): 22° C., pure water subphase
Protocol: All isotherms were obtained at 22° C. after spreading a peptide amphiphile solution in hexane-CHCl3 -methanol (5:4:1) over a pure water subphase. After 15 minutes, the monolayer was compressed laterally with constant speed for 10 mm/minute on a computerized KSV LB5000 Langmuir-Blodgett instrument and surface pressure detected using film balance with a platinum Wilhemy plate.

melanoma cell = settings: cited from earlier work

CD spectrum, positive ellipticity (poly-Pro II / triple-helix-like structure) [1] | limiting surface area (monolayer reaches maximum surface pressure and collapses) [2] | surface activity / formation of monolayers at the air-water interface [2] | SMILES | melanoma cell adhesion and spreading (melanoma cell)
no positive ellipticity |  |  | CCCCCCCCCCCCOC(=O)CC[C@H](NC(=O)CCC(=O)NCC(=O)N[C@H](C(=O)N[C@@H](CCCCN)C(=O)NCC(=O)N[C@@H](CC(=O)O)C(=O)N[C@@H](CCCCN)C(=O)NCC(=O)N[C@@H](CC(N)=O)C(=O)N1CCC[C@H]1C(=O)NCC(=O)N[C@@H](Cc1c[nH]c2ccccc12)C(=O)N1CCC[C@H]1C(=O)NCC(=O)N[C@@H](C)C(=O)N1CCC[C@H]1C(N)=O)C(C)C)C(=O)OCCCCCCCCCCCC [(C12)2 -Glu-C2-[IV-H1]] ({X3-Suc}-GVKGDKGNPGWPGAP-NH2) | 
 | 0.6 nm^2 /molecule |  | CCCCCCCCCCCCCCCCOC(=O)CC[C@H](NC(=O)CCC(=O)NCC(=O)N1CCC[C@H]1C(=O)N1C[C@H](O)C[C@H]1C(=O)NCC(=O)N1CCC[C@H]1C(=O)N1C[C@H](O)C[C@H]1C(=O)NCC(=O)N1CCC[C@H]1C(=O)N1C[C@H](O)C[C@H]1C(=O)NCC(=O)N1CCC[C@H]1C(=O)N1C[C@H](O)C[C@H]1C(=O)NCC(=O)N[C@H](C(=O)N[C@@H](CCCCN)C(=O)NCC(=O)N[C@@H](CC(=O)O)C(=O)N[C@@H](CCCCN)C(=O)NCC(=O)N[C@@H](CC(N)=O)C(=O)N1CCC[C@H]1C(=O)NCC(=O)N[C@@H](Cc1c[nH]c2ccccc12)C(=O)N1CCC[C@H]1C(=O)NCC(=O)N[C@@H](C)C(=O)N1CCC[C@H]1C(N)=O)C(C)C)C(=O)OCCCCCCCCCCCCCCCC [(C16)2 -Glu-C2 -(Gly-Pro-Hyp)4 -[IV-H1]] ({X2-Suc}-GP[Hyp]GP[Hyp]GP[Hyp]GP[Hyp]GVKGDKGNPGWPGAP-NH2) | 
 | 0.6 nm^2 /molecule |  | CCCCCCCCCCCCCCOC(=O)CC[C@H](NC(=O)CCC(=O)NCC(=O)N[C@H](C(=O)N[C@@H](CCCCN)C(=O)NCC(=O)N[C@@H](CC(=O)O)C(=O)N[C@@H](CCCCN)C(=O)NCC(=O)N[C@@H](CC(N)=O)C(=O)N1CCC[C@H]1C(=O)NCC(=O)N[C@@H](Cc1c[nH]c2ccccc12)C(=O)N1CCC[C@H]1C(=O)NCC(=O)N[C@@H](C)C(=O)N1CCC[C@H]1C(=O)NCC(=O)N1CCC[C@H]1C(=O)N1C[C@H](O)C[C@H]1C(=O)NCC(=O)N1CCC[C@H]1C(=O)N1C[C@H](O)C[C@H]1C(=O)NCC(=O)N1CCC[C@H]1C(=O)N1C[C@H](O)C[C@H]1C(=O)NCC(=O)N1CCC[C@H]1C(=O)N1C[C@H](O)C[C@H]1C(N)=O)C(C)C)C(=O)OCCCCCCCCCCCCCC [(C14)2 -Glu-C2 -[IV-H1]-(Gly-Pro-Hyp)4] ({X1-Suc}-GVKGDKGNPGWPGAPGP[Hyp]GP[Hyp]GP[Hyp]GP[Hyp]-NH2) | 
did not show any positive ellipticity |  | not surface active | CC(C)[C@H](NC(=O)CN)C(=O)N[C@@H](CCCCN)C(=O)NCC(=O)N[C@@H](CC(=O)O)C(=O)N[C@@H](CCCCN)C(=O)NCC(=O)N[C@@H](CC(N)=O)C(=O)N1CCC[C@H]1C(=O)NCC(=O)N[C@@H](Cc1c[nH]c2ccccc12)C(=O)N1CCC[C@H]1C(=O)NCC(=O)N[C@@H](C)C(=O)N1CCC[C@H]1C(N)=O [[IV-H1]] (H-GVKGDKGNPGWPGAP-NH2) | promote melanoma cell adhesion and spreading
